# Where a name gives a salt, the structure may show the parent alone. Read-outs that look alike come from different tables or passages of the source.
# Key:
# Format in all cases: in vivo, human
# [1] = test system: Macrophage inhibitory cytokine‐1 (MIC‐1); assay: Serum MIC‐1 pharmacodynamics; conditions: monotherapy, all cohorts
# Description: Macrophage inhibitory cytokine‐1 (MIC‐1) is a target of p53 transcriptional activation,[25] and, therefore, change in serum MIC‐1 levels was included as a PD endpoint, measured at multiple time points.
# [2] = Milademetan plasma pharmacokinetics; set-up: AUC0‐24h versus dose, power model estimated slope: unit not given beside the values; conditions: for half-life / Tmax: human, plasma; for half-life: read-out: geometric mean t1/2
# Description: For PK analysis, blood samples were collected at frequent intervals during Cycle 1 Days 1 and 15 in Part 1 (monotherapy), and on Day 5 or 8 (according to dosing schedule) and Day 14 in Part 1A, with sparse sampling on other days.
# [3] = test system: relapsed or refractory AML; assay: Treatment response in participants with AML (2017 European Leukemia Net recommendations)
# Experimental: Treatment efficacy was assessed according to the 2017 European Leukemia Net recommendations for AML[23] and the 2006 International Working Group response criteria for MDS.[24] In participants with AML, efficacy outcomes included complete remission (CR), CR with incomplete blood count recovery (CRi), composite complete remission (CRc; CR + CRi), morphologic leukemia‐free state (MLFS), partial remission (PR), overall response rate (CRc + MLFS+PR), stable disease (SD), and treatment failure. Bone marrow biopsies/aspirates were obtained from all participants with AML on Day 1 of Cycles 2 and 3 and once every cycle until response and on Day 1 of Cycles 6, 9, and 12 in responding participants.
# [4] = 160 mg QD for 15 days in Cycle 1
# [5] = monotherapy, all studied doses, Cycle 1 Day 1
compound,measurement,setting,value
"CC1(C)CCC2(CC1)N[C@@H](C(=O)N[C@@H]1CC[C@@H](C(N)=O)OC1)[C@H](c1ccnc(Cl)c1F)[C@]21C(=O)Nc2cc(Cl)ccc21 [Milademetan monotherapy, milademetan tosylate hydrate]","serum MIC‐1, mean (SD) fold change from baseline",[1]; Cycle 1 Day 8 (N = 53),6.4 (5.8) fold change
same,"serum MIC‐1, mean (SD) fold change from baseline",[1]; Cycle 1 Day 15 (N = 49),5.1 (4.2) fold change
same,"serum MIC‐1, mean (SD) fold change from baseline",[1]; Cycle 1 Days 21 through 22,4.1 (3.3) fold change
same,accumulation ratio (AR) based on AUC0‐24h,[2]; [4],1.29
same,accumulation ratio (AR) based on C max,[2]; [4],1.21
same,"Increase of C max, AUC0‐24h and AUClast with dose",[2]; both monotherapy and combination arms,dose‐proportional
same,half-life,"[2]; monotherapy, Cycle 1 Day 15",7.2 to 25.2 h
same,Tmax,"[2]; Cohorts 1 through 3 (60, 90, 120 mg QD 21/28)",~3 h
same,Tmax,[2]; [5],3 to 4.6 h
same,half-life,[2]; [5],12.9 to 24.6 h
same,"C max versus dose, power model estimated slope","[2]; monotherapy, Cycle 1 Day 1, 90% CI 0.44–1.08",0.76
same,"AUC0‐24h versus dose, power model estimated slope","[2]; monotherapy, Cycle 1 Day 1, 90% CI 0.49–1.15",0.82
same,Time at which steady state is reached,[2]; repeated daily doses,≤ 8 days
same,AML: CR,[3]; Full Analysis Set,2 (4%) n (%)
same,AML: CRi,[3]; Full Analysis Set,1 (2%) n (%)
same,Participants who achieved CR with incomplete blood count recovery (CRi),[3]; as given in the abstract,2.1%
same,Participants who achieved complete remission (CR),[3]; as given in the abstract,4.2%
same,Participants with remission,[3]; as summed in the discussion,4 n (%)

# — PMC11258486, “Phase 1 dose escalation study of the MDM2 inhibitor milademetan as monotherapy and in combination with azacitidine in patients with myeloid malignancies” (Cancer Medicine, 2024)
